System: KRAS patient-derived spheroids with HUVEC/MSC, viability
Experiment: Anticancer human tumor 519858-162-T-J1-PDC patient-derived colon adenocarcinoma cell line growth inhibition [KRAS2]
Conditions: for IC50: curve of first compound; for viability, T/C: stronger effect = lower value
Procedure, shortened: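 KRAS-mutant tumor cells were grown as spheroids with HUVEC endothelial cells and human MSCs as stroma. Targeted agents were tested alone and with KRAS pathway inhibitors. Doses started at or near clinical Cmax, or 10 microM, descending half-log.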

[1] = second compound 0.1 µM, first compound 0.0316 µM
[2] = second compound 0.1 µM, first compound 0.1 µM
[3] = second compound 0.1 µM, first compound 0.316 µM
[4] = second compound 0.1 µM, first compound 1 µM
[5] = second compound 0.1 µM, first compound 3.16 µM
[6] = second compound 0.1 µM, first compound 10 µM
[7] = second compound 0.316 µM, first compound 0.0316 µM
[8] = second compound 0.316 µM, first compound 0.1 µM
[9] = second compound 0.316 µM, first compound 0.316 µM
[10] = second compound 0.316 µM, first compound 1 µM
[11] = second compound 0.316 µM, first compound 3.16 µM
[12] = second compound 0.316 µM, first compound 10 µM
[13] = second compound 1 µM, first compound 0.0316 µM
[14] = second compound 1 µM, first compound 0.1 µM
[15] = second compound 1 µM, first compound 0.316 µM
[16] = second compound 1 µM, first compound 1 µM
[17] = second compound 1 µM, first compound 3.16 µM
[18] = second compound 1 µM, first compound 10 µM
[19] = second compound 3.16 µM, first compound 0.0316 µM
[20] = second compound 3.16 µM, first compound 0.1 µM
[21] = second compound 3.16 µM, first compound 0.316 µM
[22] = second compound 3.16 µM, first compound 1 µM
[23] = second compound 3.16 µM, first compound 3.16 µM
[24] = second compound 3.16 µM, first compound 10 µM
[25] = second compound 10 µM, first compound 0.0316 µM
[26] = second compound 10 µM, first compound 0.1 µM
[27] = second compound 10 µM, first compound 0.316 µM
[28] = second compound 10 µM, first compound 1 µM
[29] = second compound 10 µM, first compound 3.16 µM
[30] = second compound 10 µM, first compound 10 µM
[31] = second compound 0.1 µM, first compound 0.00316 µM
[32] = second compound 0.1 µM, first compound 0.01 µM
[33] = second compound 0.316 µM, first compound 0.00316 µM
[34] = second compound 0.316 µM, first compound 0.01 µM
[35] = second compound 1 µM, first compound 0.00316 µM
[36] = second compound 1 µM, first compound 0.01 µM
[37] = second compound 3.16 µM, first compound 0.00316 µM
[38] = second compound 3.16 µM, first compound 0.01 µM
[39] = second compound 10 µM, first compound 0.00316 µM
[40] = second compound 10 µM, first compound 0.01 µM
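Further: compound exposure lasted seven days before readout.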
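Wherever viability, T/C is given: 100% = DMSO vehicle control viability.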

SMILES	IC50 (second compound 0.1 µM) [nM]	IC50 (second compound 0.316 µM) [nM]	IC50 (second compound 1 µM) [nM]	IC50 (second compound 3.16 µM) [nM]	IC50 (second compound 10 µM) [nM]	viability, T/C [1] [%]	viability, T/C [2] [%]	viability, T/C [3] [%]	viability, T/C [4] [%]	viability, T/C [7] [%]	viability, T/C [8] [%]	viability, T/C [9] [%]	viability, T/C [10] [%]	viability, T/C [13] [%]	viability, T/C [14] [%]	viability, T/C [15] [%]	viability, T/C [19] [%]	viability, T/C [20] [%]	viability, T/C [25] [%]	viability, T/C [26] [%]	further results
COC(=O)c1ccc2c(C(=Nc3ccc(N(C)C(=O)CN4CCN(C)CC4)cc3)c3ccccc3)c(O)[nH]c2c1 + COc1cc2nc(C)nc(NC(C)c3cc(N)cc(C(F)(F)F)c3)c2cc1OC1CCOC1	> 10000	> 10000	> 10000	> 10000	4740	71.2	44.7	48.3	71.4	59.1	51.8	92	75.1	64.5	57.3	55.1	64.3	64.6	66.2	53.3	viability, T/C [5]: 85.2%; viability, T/C [6]: 113%; viability, T/C [11]: 62.1%; viability, T/C [12]: 73.7%; viability, T/C [16]: 51.6%; viability, T/C [17]: 51%; viability, T/C [18]: 77.9%; viability, T/C [21]: 50.2%; viability, T/C [22]: 55.2%; viability, T/C [23]: 66.1%; viability, T/C [24]: 88.1%; viability, T/C [27]: 56.3%; viability, T/C [28]: 80.9%; viability, T/C [29]: 128%; viability, T/C [30]: 0.38%
Cn1nccc1Nc1nccc(-c2cc3c(s2)C(C)(C)N(CCN2CCOCC2)C3=O)n1 + C=CC(=O)N1CCN(c2nc(=O)n(-c3c(C)ccnc3C(C)C)c3nc(-c4c(O)cccc4F)c(F)cc23)C(C)C1	4830	> 10000	5460	1930	1520	69	106	81.6	83.5	123	79.5	77.9	70.4	76.4	94.9	63.8	82.3	106	91	72.3	viability, T/C [5]: 56.5%; viability, T/C [6]: 38.9%; viability, T/C [11]: 74.2%; viability, T/C [12]: 42.5%; viability, T/C [16]: 80.3%; viability, T/C [17]: 59.4%; viability, T/C [18]: 37.9%; viability, T/C [21]: 70.5%; viability, T/C [22]: 55.2%; viability, T/C [23]: 51.9%; viability, T/C [24]: 29.3%; viability, T/C [27]: 58.9%; viability, T/C [28]: 51%; viability, T/C [29]: 49.3%; viability, T/C [30]: 43.6%
CN(C)C/C=C/C(=O)Nc1cc2c(Nc3ccc(F)c(Cl)c3)ncnc2cc1O[C@H]1CCOC1 + C=CC(=O)N1CCN(c2nc(=O)n(-c3c(C)ccnc3C(C)C)c3nc(-c4c(O)cccc4F)c(F)cc23)C(C)C1	> 100	> 100	> 100	> 100	> 100	87.4	84.8			93.9	60.2			61.9	80.2		61.5	81.7	80.9	73.6	viability, T/C (second compound 0.1 µM, first compound 0.000316 µM): 86.2%; viability, T/C (second compound 0.1 µM, first compound 0.001 µM): 95%; viability, T/C [31]: 86.8%; viability, T/C [32]: 80%; viability, T/C (second compound 0.316 µM, first compound 0.000316 µM): 85.6%; viability, T/C (second compound 0.316 µM, first compound 0.001 µM): 103%; viability, T/C [33]: 75.2%; viability, T/C [34]: 86%; viability, T/C (second compound 1 µM, first compound 0.000316 µM): 110%; viability, T/C (second compound 1 µM, first compound 0.001 µM): 77.8%; viability, T/C [35]: 71%; viability, T/C [36]: 83.4%; viability, T/C (second compound 3.16 µM, first compound 0.000316 µM): 61.4%; viability, T/C (second compound 3.16 µM, first compound 0.001 µM): 69.7%; viability, T/C [37]: 90.5%; viability, T/C [38]: 61.1%; viability, T/C (second compound 10 µM, first compound 0.000316 µM): 74.8%; viability, T/C (second compound 10 µM, first compound 0.001 µM): 92.6%; viability, T/C [39]: 79.1%; viability, T/C [40]: 67.5%
CCN1CCN(Cc2ccc(Nc3ncc(F)c(-c4cc(F)c5nc(C)n(C(C)C)c5c4)n3)nc2)CC1 + C=CC(=O)N1CCN(c2nc(=O)n(-c3c(C)ccnc3C(C)C)c3nc(-c4c(O)cccc4F)c(F)cc23)C(C)C1	> 1000	> 1000	> 1000	742	265	71.9	72.4	78.6	59.3	79.2	62.2	66	49.2	83.6	60.4	72.8	69.3	73.9	51.8	75.7	viability, T/C [31]: 83%; viability, T/C [32]: 67.4%; viability, T/C [33]: 98.6%; viability, T/C [34]: 96.5%; viability, T/C [35]: 61.9%; viability, T/C [36]: 111%; viability, T/C [16]: 50.4%; viability, T/C [37]: 84.2%; viability, T/C [38]: 93.7%; viability, T/C [21]: 64.6%; viability, T/C [22]: 44.6%; viability, T/C [39]: 109%; viability, T/C [40]: 97.7%; viability, T/C [27]: 60.5%; viability, T/C [28]: 23.4%

— PubChem BioAssay AID1963872 (Molecular Pharmacology Branch, DTP, NCI, 2024)
